Test system: pilocarpine model
Assay: pilocarpine model, oral test compound 10 minutes before intraperitoneal pilocarpine
Type: in vivo, Mus musculus or mouse
Protocol: In some instances, the anticonvulsive effects of the composition of the invention have been evaluated in vivo upon oral administration to animals. The pharmaceutical composition of the invention was administered to mammals (Mus musculus or mouse) with oral dose of treatment, as compared to other compounds or to saline control. In these experiments, the test compounds were administered orally 10 minutes prior to the (intraperitoneal) administration of pilocarpine. Pilocarpine hydrochloride (320 mg/kg, Merck), dissolved in 0.9% sterile saline, was given intraperitoneally for induction of SE (status epileticus) (Turski et al., 1983). In the Turski model, the neurotoxic effects begin about 15-25 minutes after the injection of Pilo, with the occurrence of motor and limbic seizures, the animals evolving to a state of continuous (clonic) seizures that characterize SE Sanabria and Cavalheiro, 2000).
In this embodiment, the anticonvulsant effect of the composition of the invention prepared according to example 1 was evaluated by prior administration of the inventive composition and subsequent administration of pilocarpine to animals. Administration of pilocarpine leads to severe brain damage, neurotoxicity, and usually culminates in the death of animals.
The composition of the invention prepared according to Example 1 was pre-administered to the animals.

[1] = 1000 μg/kg oral, group n=5, pilocarpine 320 mg/kg i.p.

Compound	survival time compared with control (FIG. 1) (600 μg/kg oral)	number of animals that died in the group [1]	remaining animals that remained alive for more than a week [1]	mean survival time for the group (1000 μg/kg oral, versus control, Hp 600 μg/kg, DIIADDEPLT 1000 μg/kg)	occurrence of typical side effects of other anticonvulsants, such as prostration and nasal bleeding (oral administration, mice)	brain injury related symptoms and survival after pilocarpine (prior oral administration of the composition of Example 1)	time for the occurrence of the first salivation (FIG. 4) (prior oral administration, pilocarpine-induced salivation)	time for the occurrence of the first seizure (FIG. 6), P vs Control, Hp 600 μg/kg, Pep19 1000 μg/kg (starred group, by exclusion Hp 1000 μg/kg oral)	survival time compared with control (FIG. 1) (1000 μg/kg oral)
CC(C)C[C@H](NC(=O)[C@H](Cc1ccccc1)NC(=O)[C@H](CCCCN)NC(=O)[C@H](Cc1ccccc1)NC(=O)[C@H](CC(N)=O)NC(=O)[C@@H](NC(=O)[C@@H]1CCCN1)C(C)C)C(=O)N[C@@H](CO)C(=O)N[C@@H](Cc1cnc[nH]1)C(=O)O [Hp, PVNFKFLSH]	not statistically significant	one	4	significantly different and higher than the others	has not been observed	the vast majority of the animals subjected to these experiments had no brain injury related symptoms and survived without apparent damage	substantial change in the time profile for the occurrence of the first salivation	< 0.001	
DIIADDEPLT [peptide used as another control, reference compound]									not statistically significant
